Source: paper PMC12177571, “Glycosidase-activated prodrugs of a cytotoxic iron chelator for targeted cancer therapy” (RSC Medicinal Chemistry, 2025)

Columns and labels:
[1] = system: OvCar-3 cells; assay: MTT cell viability assay, OvCar-3 cells; format: cell-based; conditions: Homo sapiens, 72 h incubation, mean and SD of three independent experiments, read-out: IC50 against OvCar-3
Experimental: (§1) Next, the cytotoxicity of the prodrugs was assessed in the human lung cancer (A549) and human ovarian cancer (OvCar-3) cell lines: overexpressing β-glucosidase, and, overexpressing both β-glucosidase and β-galactosidase, respectively.[40,41] For this, a standard MTT assay was employed to generate the proliferation profiles (cf. ESI ^† Fig. S1–S5) and allowed us to calculate the IC50 values for each compound. GM5756 fibroblast cells were included as non-cancerous control.
(§2) Cell culture. Ovcar-3 cells were maintained in RPMI-1640 medium (Invitrogen), A549 cells were maintained in high glucose (4.5 g/L) Dulbecco’s Modified Eagle’s medium (Invitrogen. Alle employed culture media were supplemented with 10% fetal bovine serum (Gibco), 2% penicillin/streptomycin (Sigma Aldrich), 1%GlutaMAX™-I (100x, Gibco), and 1% sodium pyruvate (100 mM, Gibco).
(§3) Cells were kept under a humidified atmosphere of 10% CO2 and 90% air at 37°C. Cells were split when they reached 90% confluency. All employed cell lines were sourced from the German Collection of Microorganisms and Cell Cultures (Leibnitz Institute, DSMZ).
(§4) Cell viability studies and MTT assays. Cells were harvested and plated on a 96-well plate in 100 µL growth medium at a density of 1500 cells per well. The cells were left to grow for 24 h at 37°C under a humidified atmosphere with 10% CO2. The next day, 100 µL of growth medium containing appropriate concentrations of the investigated compound were added to each well. As a control, the first row of wells was treated with 100 µL medium containing only the vehicle (1% DMSO); all wells contained a final concentration of 0.5% DMSO for the duration of the treatment. After incubation with the compound for 72 h, 50 µL of MTT solution (2.5 mg/mL 3-(4,5-dimethylthiazol-2-yl)-2,5-diphenyltetrazolium bromide dye in PBS buffer) was added to each well. After an additional incubation for 2 h, the supernatant was aspired off and 200 µL of DMSO was added to each well to solubilize the precipitated formazan dye. The produced formazan dye was quantified by measuring the optical density of the solution at 550 nm with a Tecan Infinite M Nano+ plate reader. A baseline correction was performed by subtracting a reference absorbance at 620 nm for each well. From the mean of the corrected absorbances for each set of equivalent wells, a dose-response curve was produced, which was then normalized to the wells containing untreated cells to allow for plate-to-plate comparison. The resulting dose-response curves were subjected to non-linear regression analysis performed in Microsoft Excel (version 16.64) to determine IC50 via the Hill-Langmuir model. Data is shown as the mean of three replicate experiments and error bars represent the standard deviation at each datum point.

[2] = Fe(III) binding study by UV-vis spectroscopy; conditions: 30 μM compound, excess FeCl3 (50 μM), methanol
Experimental: With the prodrugs in hand, binding studies were carried out using UV-vis spectroscopy; this was done to confirm the Fe(III) binding ability of all new compounds. […] To evaluate whether 2a, 2b, 3a, and 3b were chelating Fe(III), each prodrug was similarly dissolved in a solution containing excess FeCl3.
Fig. 2 UV-vis absorption spectra for prodrugs 2a/b and 3a/b as well as 1 at a concentration of 30 μM with an excess of FeCl3 as Fe(III) source (50 μM) in methanol.
UV-vis spectra were recorded in methanol containing the indicated ligand or prodrug at a concentration of 30 µM and as appropriate Fe(III) at a concentration of 50 µM. A stock solution of FeCl3 in DMSO was used as source of Fe(III) and ligands were added from a […] stock solution in DMSO. All samples contained a final concentration of <0.2% DMSO.
Figure S7: UV-vis absorption spectra of 1, Fe(III), and 1 + Fe(III). The graph for 1 + Fe(III) (Numerically) was constructed by numerically adding the respective signals of Fe(III) and 1 to show what graph could be expected if the two species were in the same solution without interacting.
Figure S8: UV-vis absorption spectra of 2a, Fe(III), and 2a + Fe(III). The graph for 2a + Fe(III) (Numerically) was constructed by numerically adding the respective signals of Fe(III) and 2a to show what graph could be expected if the two species were in the same solution without interacting. […]

[3] = system: GM5756 fibroblast cells; assay: MTT cell viability assay, GM5756 fibroblast cells (non-cancerous control); format: cell-based; conditions: 72 h incubation, mean and SD of three independent experiments, read-out: IC50 against GM5756
Experimental: as §1, §2, §3, §4

[4] = system: A549 cells; assay: MTT cell viability assay, A549 cells; format: cell-based; conditions: Homo sapiens, 72 h incubation, mean and SD of three independent experiments, read-out: IC50 against A549
Experimental: as §1, §2, §3, §4

[5] = molecular target: T1, β-galactosidase (Escherichia coli, UniProt P00722); assay: AIE fluorescence study of release of 1 with β-galactosidase; format: biochemical, e.coli; conditions: free chelator 1 as reference, 20 μM, enzyme not specified
T1 construct: purchased Roche; host or cells: E. coli overproducer
T1 sequence (P00722 2-1024): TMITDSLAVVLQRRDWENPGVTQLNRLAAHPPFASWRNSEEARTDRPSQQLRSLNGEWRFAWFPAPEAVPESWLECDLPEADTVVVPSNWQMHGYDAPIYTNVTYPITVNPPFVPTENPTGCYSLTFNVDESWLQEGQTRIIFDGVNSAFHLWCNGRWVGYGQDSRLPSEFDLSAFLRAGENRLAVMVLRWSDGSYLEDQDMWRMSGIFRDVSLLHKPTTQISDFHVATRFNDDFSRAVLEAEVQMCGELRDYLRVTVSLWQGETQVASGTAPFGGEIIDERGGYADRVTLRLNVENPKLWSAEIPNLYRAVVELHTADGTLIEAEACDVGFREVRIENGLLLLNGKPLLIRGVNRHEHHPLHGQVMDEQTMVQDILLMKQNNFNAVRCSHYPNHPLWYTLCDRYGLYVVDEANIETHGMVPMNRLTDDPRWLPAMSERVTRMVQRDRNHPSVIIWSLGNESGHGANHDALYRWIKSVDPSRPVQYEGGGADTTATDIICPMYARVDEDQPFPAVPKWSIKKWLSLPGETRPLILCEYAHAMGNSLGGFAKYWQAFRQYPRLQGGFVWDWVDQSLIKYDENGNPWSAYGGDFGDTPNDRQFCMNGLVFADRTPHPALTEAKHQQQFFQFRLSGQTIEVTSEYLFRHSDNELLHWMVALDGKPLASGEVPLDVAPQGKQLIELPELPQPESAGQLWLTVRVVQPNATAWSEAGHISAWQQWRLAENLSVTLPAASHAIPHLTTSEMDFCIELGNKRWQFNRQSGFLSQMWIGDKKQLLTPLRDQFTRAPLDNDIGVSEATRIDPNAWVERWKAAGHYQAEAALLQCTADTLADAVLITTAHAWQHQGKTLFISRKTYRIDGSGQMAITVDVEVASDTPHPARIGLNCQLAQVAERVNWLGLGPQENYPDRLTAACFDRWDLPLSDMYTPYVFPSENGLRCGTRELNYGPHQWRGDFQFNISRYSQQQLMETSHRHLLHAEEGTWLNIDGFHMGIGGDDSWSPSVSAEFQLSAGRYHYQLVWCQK
Experimental: The AIE fluorescence properties of 1 were used as a means of supporting the above conclusion. The emission of all glycosylated prodrugs is suppressed. Thus, solutions of each prodrug were prepared in water, and three enzyme units of β-galactosidase or β-glucosidase, as appropriate, were added to the prodrugs. Each mixture was then analysed by fluorescence spectroscopy after 24 h of incubation. […] This finding is consistent with a lack of enzymatic activation.
Fig. 4 Relative emission intensity at 480 nm (*for 3b at 420 nm) of evaluated compounds at 20 μM before and after incubation with 3 U of the appropriate enzyme. TEXT PRINTED IN THE PICTURE: 1: Relative Emission 480 nm: 100% (Before incubation); Relative Emission 480 nm: 100% (After 24 h incubation) | 2a: Relative Emission 480 nm: 0% (Before incubation); Relative Emission 480 nm: 0% (After 24 h incubation) | 2b: Relative Emission 480 nm: 0% (Before incubation); Relative Emission 480 nm: 1% (After 24 h incubation) | 3a: Relative Emission 480 nm: 1% (Before incubation); Relative Emission 480 nm: 33% (After 24 h incubation) | 3b*: Relative Emission 480 nm: 1% (Before incubation); Relative Emission 480 nm: 11% (After 24 h incubation) […]
Figure S25: Fluorescence spectra for excitation (blue) and emission (green) of 1 at a concentration of 20 μM in water.
Figure S26: Fluorescence spectra for excitation (blue) and emission (green) of 2a at a concentration of 20 μM in water before (left) and after (right) incubation with 3 units of b-galactosidase for 24 h. […]
Figure S28: Fluorescence spectra for excitation (blue) and emission (green) of 3a at a concentration of 20 μM in water before (left) and after (right) incubation with 3 units of β-galactosidase for 24 h. […]

With `Oc1ccccc1-c1nc(-c2ccccc2O)n(-c2ccccc2)n1` [compound 1, reference compound] the IC50 [1] was 3.9 ± 1.6 µM, the “Absorbance at 510 nm (Fe(III) chelation band)” value [2] was “characteristic absorption band at 510 nm” and the IC50 [3] was 2.7 ± 0.1 µM. The IC50 [4] was 3.1 ± 0.4 µM, the “Relative emission intensity at 480 nm” value ([5]; after 24 h incubation) was 100% and the “Relative emission intensity at 480 nm” value ([5]; before incubation) was 100%.
